Measurements from a melting point compilation (Tetko et al.; mined from patent text by program, amines drawn as free bases though some values may be those of a salt).

First: OCC[C@H]1CN(Cc2ccccc2)CCN1
Second: N=c1nc(N)c2ncn(Cc3ccccc3)c2c(N)n1
The melting point of the first is lower: 78.9 to 80.4 °C for the first, 202 to 204 °C for the second.

First: CCOC(=O)c1cnn2c(-c3ccccc3)ccnc12
Second: CCOC(=O)c1ccc2c3ccccc3n(Cc3ccccc3)c2c1C
The melting point of the first is higher: 129 to 130 °C for the first, 79 to 80 °C for the second.

First: CCCN(CCC)Cc1cnc(-c2ncn3c2[C@@H]2CCN2C(=O)c2ccccc2-3)o1
Second: Cc1cnc2cc(-c3cn(C)c4ccccc34)[nH]c2n1
The melting point of the first is lower: 132 to 134 °C for the first, 170 to 175 °C for the second.

Compared with `COc1cc(-c2nc(N)nn2CCC2CCCCC2)c(OC)cc1C`, `COc1cc(OC)c(F)c(N2Cc3cnc(SC)nc3N(C3CCCC3)C2=O)c1F` is higher in melting point: 136 to 137 °C for the first, 167 to 169 °C for the second.

Compared with `CCC1OC1CC(=O)OC(C#N)c1ccc2ccccc2c1` (stereo not drawn), `CN(c1ccc2ccccc2c1)C(C(=O)O)c1c(Cl)cccc1Cl` (stereo not drawn) is higher in melting point: 60 to 61 °C for the first, 144 °C for the second.

First: CC(C)CCc1nc2ccccn2c(=O)c1-c1ccc(Cl)cc1
Second: O=C(c1ccc(Cl)cc1)c1cc2ccccc2cc1O
The melting point of the first is higher: 146 to 149 °C for the first, 135 to 137 °C for the second.

First: Cc1ccc(-c2nccc(-c3ccccc3)n2)cc1[N+](=O)[O-]
Second: COc1ccc(-n2cc(-c3cccc(C(=O)O)n3)cn2)cc1
The melting point of the first is higher: 139 °C for the first, 122 to 123 °C for the second.

`C(=NC(c1ccccc1)c1ccccc1)c1ccccc1` and `O=C1C=CC(Cl)(C(=O)OC(c2ccccc2)c2ccccc2)O1` (stereo not drawn) fall in the same range of melting point: 99 to 101 °C for the first, 99 to 101 °C for the second.

First: CS(C)=Nc1nc(OCc2ccccc2)ncc1F
Second: CCn1cc(Cl)nc(SCC(=O)Nc2ccccc2)c1=O
The melting point of the first is lower: 125 to 129 °C for the first, 156 to 158 °C for the second.

First: CCc1nc(-c2ccc(OC)cc2)c(-c2cccnc2)s1
Second: COc1ccc(NC(=O)c2ccc(F)cc2)cc1
The melting point of the first is lower: 59 to 60 °C for the first, 171 to 172 °C for the second.

First: NC(=O)Nc1ccc2c(c1)C(CN1CCC(c3ccc(F)cc3)CC1)CC2 (stereo not drawn)
Second: O=C(c1ccc(F)cc1)C1CCN(CCCCl)CC1
The melting point of the first is higher: 172 to 174 °C for the first, 66.5 to 68.5 °C for the second.

Compared with `CC(C)(C)OC(=O)N1CCC(Oc2ccc(Cc3cc4cc(C#N)ccc4o3)cc2)CC1`, `N#Cc1cccc(CN2CCN(c3ccc(N)cc3)CC2)c1` is lower in melting point: 144 to 146 °C for the first, 79 to 81 °C for the second.

First: Cc1cc(C2=C(c3cccc(F)c3)C(=O)C(C)(C)O2)ccc1S(N)(=O)=O
Second: Cc1c(O[Si](C)(C)C(C)(C)C)cc(N2C(=O)c3ccccc3C2=O)cc1C(=O)OCc1ccc([N+](=O)[O-])cc1
The melting point of the first is lower: 81 to 82 °C for the first, 125 to 127 °C for the second.

First: CCC(=O)NN=C(C)c1cnccn1
Second: CNc1ccc(/C=C/C(=O)O)cn1
The melting point of the first is lower: 181 °C for the first, 227 °C for the second.

First: CC(C)(C)OC(=O)C1CCCN1C(=O)c1ccc2c(Cl)cnc(Cl)c2c1 (racemic)
Second: CC(=O)c1ccc(C2CCN(C(C)=O)CC2)c(N)c1
The melting point of the first is lower: 144 to 146 °C for the first, 220 to 222 °C for the second.

Compared with `CCOC(=O)c1cc(C(=O)c2ccccc2Cl)c(-n2c(C)nnc2CNC(=O)Nc2cccc(OC)c2)s1`, `CCOC(=O)c1nnc2n1-c1ccccc1C(c1ccccc1Cl)=NC2` is higher in melting point: 132 to 134 °C for the first, 235 to 237 °C for the second.

First: Cc1cc(CO)c(C(=O)O)c(S)n1
Second: CCOC(=O)c1c(C)cc(NC=O)c(C(=O)O)c1C
The melting point of the first is higher: over 270 °C for the first, 146 to 148 °C for the second.

First: Oc1ccc2oc(-c3cccc(O)c3O)nc2c1
Second: Cc1ccccc1-c1cc(C(=O)NC(=N)N)c2ccc(O)cc2n1
The melting point of the first is higher: 239 to 241 °C for the first, 202 to 208 °C for the second.

First: CCOC(=O)Cc1nc(N)cc(Cl)n1
Second: OCc1cnc(Cl)cc1Cl
The melting point of the first is higher: 127 to 128 °C for the first, 73 to 77 °C for the second.

First: O=c1cc(-c2ccccc2)c2ccc(COc3cc(F)cc(-c4ccccc4)c3)cc2o1
Second: OCC1(CO)COC(c2nc(-c3ccccc3)c(-c3ccccc3)n2Cc2ccccc2)OC1
The melting point of the first is lower: 129 to 131 °C for the first, 186 to 188 °C for the second.

First: NS(=O)(=O)c1ccc(C=O)cc1
Second: Cc1ccc(S(=O)(=O)c2ccc(N3CCC4(CC3)OCCO4)cc2)cc1
The melting point of the first is lower: 104 to 106 °C for the first, 164 to 165 °C for the second.

First: Cc1nnc(-c2ccc3ncn(-c4cc(C(F)(F)F)ccc4Cl)c3c2)o1
Second: Cc1c(C(F)(F)F)ncn1-c1ncc(C(F)(F)F)cc1Cl
The melting point of the first is higher: 211 to 212 °C for the first, 59.4 °C for the second.

First: COC(=O)c1nc(Cl)c(F)c(NC(C)=O)c1Cl
Second: COCc1c(S(C)(=O)=O)ccc(C(=O)O)c1Cl
The melting point of the first is higher: 183 to 186 °C for the first, 137 to 141 °C for the second.

Compared with `COC1=C(OC)C(=O)C2=C(CCC(CCOc3ccc4c(c3)OCO4)CC2)C1=O`, `COc1cc(N2CCOCC2)ccc1Nc1nc(Nc2ccc3c(c2OC)CCCC(=O)N3C)ncc1Cl` is higher in melting point: 75 to 78 °C for the first, 197 to 199 °C for the second.

Compared with `CC(C)(C)OC(=O)NCCSCC1(C)NC(=O)NC1=O` (stereo not drawn), `CC(C)(C)OC(=O)NCC(O)c1ccccc1` (stereo not drawn) is lower in melting point: 134 to 136 °C for the first, 123 to 124 °C for the second.

First: O=C1Cc2cc(-c3cnc4[nH]c(=O)n(CC5CCCCC5)c4n3)ccc2N1
Second: Cn1c(=O)c(-c2ccccc2Cl)cc2cnc(N[C@H]3CC[C@H](NS(C)(=O)=O)CC3)nc21
The melting point of the first is higher: 313 to 316 °C for the first, 261 °C for the second.

Compared with `NC(=O)c1cccc(NC(=O)Cc2cccc(Br)c2)c1`, `O=C(O)Cc1ccc2c(c1)C(=O)c1cc(C(F)(F)F)ccc1CO2` is lower in melting point: 202 °C for the first, 152 to 155 °C for the second.

Compared with `COc1ccc(CNCCCOc2ccc(S(=O)(=O)c3c(C(C)C)cn4ccccc34)cc2)cc1OC`, `O=C(NCCOc1ccc(CC(Sc2nc3ccccc3o2)C(=O)O)cc1)c1ccc(-c2ccccn2)cc1` (stereo not drawn) is lower in melting point: 109 to 111 °C for the first, 66 to 67 °C for the second.

Compared with `Fc1nccc(I)c1CCCCl`, `Nc1ccc(I)cc1CO` is higher in melting point: 24 to 25 °C for the first, 125 °C for the second.

First: CC(=O)Oc1ccccc1C(=O)NC(Cl)C(Cl)(Cl)Cl (stereo not drawn)
Second: CCNC(=O)c1c(OC(C)(C)C)ccc2ccccc12
The melting point of the first is lower: 88 to 90 °C for the first, 126 to 127 °C for the second.

Compared with `CN1CCC(=C2c3ccccc3C=C(Br)c3ccccc32)CC1`, `Cn1c(=O)c(-c2c(Cl)cccc2Cl)cc2cnc(NCc3ccccc3)nc21` is higher in melting point: 127 to 129 °C for the first, 217 to 219 °C for the second.

Compared with `Brc1ccc(CSc2nc(-c3ccncc3)ns2)cc1`, `O=C(O)CSc1nc(-c2ccc(Cl)cc2)no1` is lower in melting point: 132 °C for the first, 112 to 114 °C for the second.

First: COC(c1ccc(Cl)c2nc3n(c12)CCCN3c1ccc(Cl)cc1Cl)C1CC1 (stereo not drawn)
Second: COc1ccc(NC(=O)c2c(Cl)cccc2Cl)c2nccc(N3CCN(C)C3=O)c12
The melting point of the first is lower: 138 to 139 °C for the first, 227 to 237 °C for the second.

Compared with `O=C(NN=Cc1cccnc1)NN=Cc1cccnc1`, `O=C(c1ccccc1)c1cc2ccncc2n1S(=O)(=O)c1ccccc1` is lower in melting point: 202 to 204 °C for the first, 145 to 146 °C for the second.

First: [N-]=[N+]=NC1CC(n2ccc(N)nc2=O)OC1CO (stereo not drawn)
Second: CC1Cn2c(nc3ccccc32)NC1=O (stereo not drawn)
The melting point of the first is lower: 174 to 176 °C for the first, over 260 °C for the second.

First: N#Cc1cccc(CN2CCc3cc(Cl)ccc32)c1
Second: N#Cc1ccc(Nc2nc(Cc3c(Cl)cccc3Cl)cc(NC(=O)CN3CCCCC3)n2)cc1
The melting point of the first is lower: 73.5 to 75.5 °C for the first, 175 to 180 °C for the second.

First: CCC(CC)Oc1cc(C)nc(Nc2c(C)cc(C)cc2C)c1C(=O)n1ccnc1
Second: CCOC(=O)c1cc(OCN2C(=O)c3c(C(C)C)cc(OC)cc3S2(=O)=O)n(-c2ccccc2)n1
The melting point of the first is lower: 120 to 122 °C for the first, 170 to 171 °C for the second.

First: COC1(c2ccc(C)cc2)CCC(=NO)CC1 (stereo not drawn)
Second: Cc1ccc(-c2ccc(C(CCC(=O)O)=NO)cc2)cc1
The melting point of the first is lower: 114 to 116 °C for the first, 176 to 178 °C for the second.

Compared with `CCN(CC)Cc1ccc2[nH]c(C)c(C(=O)OCc3ccccc3)c2c1`, `CCCCCCCCCCOc1ccc(OCc2ccccc2)c(C(=O)N(CC(=O)O)CC(=O)O)c1` is lower in melting point: 106 to 108 °C for the first, 74 to 78 °C for the second.

Compared with `CCCCC(=O)NC(C(=O)OCC)=C(N)SCC`, `CCOC(=O)c1ccc(CCN(C)CCCC(C#N)(C(=O)OCC)c2ccc(OC)c(OC)c2)cc1` (stereo not drawn) is lower in melting point: 110 °C for the first, 83 to 84 °C for the second.

First: CCC1CC(=O)CC2CCC3C4CCC(OC(C)=O)C4(C)CCC3C12C (stereo not drawn)
Second: CCOC(=O)N1CCN(c2nc(C)nc3c2OCC(=O)N3)CC1
The melting point of the first is lower: 159 °C for the first, 197 to 198 °C for the second.

Compared with `COc1cc(COc2ncccc2C#N)ccc1OCc1nc(-c2ccco2)oc1C`, `COc1ccc(Cc2nc(N3CCOCC3)c3c(C)c(C#N)sc3n2)cc1OC` is lower in melting point: 137 to 138 °C for the first, 67 to 70 °C for the second.

First: Cc1cc(SC2=C(O)CC(CCc3ccccn3)(C(C)C)OC2=O)c(C(C)(C)C)cc1CO (stereo not drawn)
Second: C[C@H](NC(=O)c1c[nH]c2ncc(-c3ccc(C(=O)NCc4ccccc4)s3)nc12)C(C)(C)C
The melting point of the first is lower: 100 to 110 °C for the first, 225 to 226 °C for the second.

Compared with `COC(=O)C(O)=CC(=O)c1cn(Cc2ccccc2F)c(=O)n(Cc2ccccc2F)c1=O`, `Cn1cc(C=C2SC(=S)N(CC(=O)O)C2=O)c2ccccc21` is higher in melting point: 158 to 160 °C for the first, 282 to 288 °C for the second.

First: CNC(=S)N(C)NC(=O)c1cccs1
Second: C=C(C)C(=O)OCc1ccc(SC)cc1
The melting point of the first is higher: 176 to 178 °C for the first, 41 °C for the second.

First: CCCCCC(CCn1ccnc1)Sc1ccc(C(C)(C)C)cc1 (stereo not drawn)
Second: CCN(CC)CCOc1ccc(Nc2ncc3c(n2)NC(=O)N(c2c(Cl)cccc2Cl)C3)cc1
The melting point of the first is lower: 192 to 193 °C for the first, 248 °C for the second.

Compared with `CC1(C)C(=O)Nc2ccccc2NC1=O`, `Cc1ncccc1CN(CCn1cc(C)c2occc2c1=O)Cc1ccc2c(c1)NC(=O)C(C)(C)C(=O)N2CC1CC1` is lower in melting point: over 270 °C for the first, 220 to 221 °C for the second.

First: CCCCCCCCCCCc1cc(O)c(CCCCCC)c(=O)o1
Second: CCc1n[nH]c(=O)n1C
The melting point of the first is lower: 83 to 84 °C for the first, 86 °C for the second.

First: Cc1cn(-c2cc(NC(=O)c3ccc(C)c(/C=C/n4cnc5c(N)ncnc54)c3)cc(C(F)(F)F)c2)cn1
Second: Nc1nc(Nc2cccc(C(F)(F)F)c2)nc(OCC(F)(F)F)n1
The melting point of the first is higher: 258 °C for the first, 133 to 135 °C for the second.

Compared with `Cc1sc2c(Br)c3ccccc3c(-c3cc(Br)c(OC(C)C(=O)O)c(Br)c3)c2c1C` (stereo not drawn), `COc1ccc2ccc3nc(C(N)=O)cn3c2c1` is higher in melting point: 224 to 225 °C for the first, 273 to 276 °C for the second.

Compared with `COc1ccc(-c2cncc(OC3SCC(OC(C)=O)C(OC(C)=O)C3OC(C)=O)c2)cc1Cl` (stereo not drawn), `COc1cc(OC)nc(Oc2cccc(Cl)c2C(=O)Oc2ccc([N+](=O)[O-])cc2)n1` is lower in melting point: 155 °C for the first, 130 to 132 °C for the second.

Compound `CN(C)c1ccc2c(c1)SSSSS2` has a melting point of 122 °C.
